The target of assay [1] is T1, Recombinant STAT3 protein (STAT3(G127-I722)) (Homo sapiens, UniProt P40763).
T1 construct: STAT3(G127-I722)
Briefly: STAT3 Fluorescence Polarization (FP) Assay. The class given is binding. The settings on record: STAT3(G127-I722) 25 nM, probe 5-FAM-GpYLPQTV-NH2 2 nM, 45-minute incubation. Here is the method:
STAT3 Fluorescence Polarization (FP) Assay
An FP assay was developed to determine IC50 values for test substances. Recombinant STAT3 protein (STAT3(G127-I722)) at 25 nM was combined with a fluorescently labeled, phosphotyrosine peptide probe (5-FAM-GpYLPQTV-NH2) at 2 nM in FP buffer (10 mM HEPES pH 7.4, 50 mM NaCl, 1 mM EDTA, 0.05% Tween 20, 2 mM DTT). 50 μL of STAT3-probe mixture was added to serial diluted compounds in black, 96-well plates (Greiner BioOne 655076) to a final concentration of 1% DMSO. Reaction components were mixed, and FP was measured after 45-minute incubation at room temperature using a Tecan Spark multimode plate reader. FP signal (mP) was plotted against the log concentration of the test substances and IC50 values were calculated by nonlinear regression analysis using GraphPad Prism software. For STAT3 FP assay, A=≤100 nM; B=>100-1000 nM; C=>1-10 μM; and D=>10 μM.

The target of assay [2] is T2, Recombinant STAT6 protein (STAT6(W123-T658)) (Homo sapiens, UniProt P42226).
T2 construct: STAT6(W123-T658)
T2 sequence (P42226 123-658): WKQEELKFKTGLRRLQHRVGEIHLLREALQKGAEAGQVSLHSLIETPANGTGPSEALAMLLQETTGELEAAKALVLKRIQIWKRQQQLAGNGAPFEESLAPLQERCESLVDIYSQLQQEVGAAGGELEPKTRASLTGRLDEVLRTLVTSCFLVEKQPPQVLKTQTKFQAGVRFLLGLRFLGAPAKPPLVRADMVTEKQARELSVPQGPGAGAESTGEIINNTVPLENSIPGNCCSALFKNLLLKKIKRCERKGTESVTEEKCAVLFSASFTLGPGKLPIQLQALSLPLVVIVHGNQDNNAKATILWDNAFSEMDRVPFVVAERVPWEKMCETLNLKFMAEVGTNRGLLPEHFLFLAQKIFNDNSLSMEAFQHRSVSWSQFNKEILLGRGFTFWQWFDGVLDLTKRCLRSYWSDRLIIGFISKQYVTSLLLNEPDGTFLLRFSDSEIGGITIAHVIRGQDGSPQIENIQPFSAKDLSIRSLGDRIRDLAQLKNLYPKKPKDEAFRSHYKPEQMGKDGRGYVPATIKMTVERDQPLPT
Kind of assay: STAT6 Fluorescence Polarization (FP) Assay. The class given is binding. The settings on record: STAT6(W123-T658) 250 nM, probe 5-FAM-ApYKPFQDLI-NH2 2 nM, 45-minute incubation. Here is the method: STAT6 Fluorescence Polarization (FP) Assay
An FP assay was developed to determine IC50 values for test substances. Recombinant STAT6 protein (STAT6(W123-T658)) at 250 nM was combined with a fluorescently labeled, phosphotyrosine peptide probe (5-FAM-ApYKPFQDLI-NH2) at 2 nM in FP buffer (10 mM HEPES pH 7.4, 50 mM NaCl, 1 mM EDTA, 0.05% Tween 20, 2 mM DTT). 50 μL of STAT6-probe mixture was added to serial diluted compounds in black, 96-well plates (Greiner BioOne 655076) to a final concentration of 1% DMSO. Reaction components were mixed, and FP was measured after 45-minute incubation at room temperature using a Tecan Spark multimode plate reader. FP signal (mP) was plotted against the log concentration of the test substances and IC50 values were calculated by nonlinear regression analysis using GraphPad Prism software. For STAT6 FP assay, A=≤300 nM; B=>300-3000 nM; C=>3-30 μM; and D=>30 μM.
On the technique in general: Polarisation of emitted light reports the rotation of a fluorescent probe.

T1 sequence (P40763 127-722, species assumed): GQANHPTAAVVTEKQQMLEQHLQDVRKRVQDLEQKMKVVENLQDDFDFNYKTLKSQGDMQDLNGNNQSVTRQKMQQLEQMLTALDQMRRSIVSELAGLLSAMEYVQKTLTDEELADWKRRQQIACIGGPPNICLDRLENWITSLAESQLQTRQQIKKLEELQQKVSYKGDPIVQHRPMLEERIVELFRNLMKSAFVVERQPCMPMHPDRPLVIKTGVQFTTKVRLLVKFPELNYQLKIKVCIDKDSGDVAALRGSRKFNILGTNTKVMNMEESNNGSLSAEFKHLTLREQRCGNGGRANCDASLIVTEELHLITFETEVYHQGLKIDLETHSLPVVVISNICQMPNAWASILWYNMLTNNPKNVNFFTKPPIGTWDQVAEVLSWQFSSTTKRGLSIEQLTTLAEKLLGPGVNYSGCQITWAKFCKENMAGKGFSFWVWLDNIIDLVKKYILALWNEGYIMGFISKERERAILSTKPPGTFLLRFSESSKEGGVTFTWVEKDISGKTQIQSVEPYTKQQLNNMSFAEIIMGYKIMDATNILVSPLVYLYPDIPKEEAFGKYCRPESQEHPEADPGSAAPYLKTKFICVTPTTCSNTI

With `CN1CCN(c2ccncc2C2CN(C(=O)[C@@H]3CC[C@@H]4C[C@H]5C[C@H]5C[C@H](NC(=O)c5cc6cc([C@H](F)P(=O)(O)O)ccc6s5)C(=O)N43)C2)CC1` (single isomer, unassigned) [Example 403], the IC50 – broadly, the midpoint of a concentration-inhibition curve – in assay [1] was less than 0.1 µM; in assay [2], 3 to 30 µM.

With `CN1CCN(c2ccncc2C2CN(C(=O)[C@@H]3CC[C@@H]4C[C@H]5C[C@H]5C[C@H](NC(=O)c5cc6cc([C@@H](F)P(=O)(O)O)ccc6s5)C(=O)N43)C2)CC1` (single isomer, unassigned) [Example 404], the figures for the IC50 in assay [1] and in assay [2] were less than 0.1 µM and greater than 30 µM, respectively.

In the case of `O=C(N[C@H]1C[C@@H]2C[C@@H]2C[C@H]2CC[C@@H](C(=O)N3CC(c4cnccc4N4CCOCC4)C3)N2C1=O)c1cc2cc([C@@H](F)P(=O)(O)O)ccc2s1` (single isomer, unassigned) [Example 405], the IC50 in assay [1] was less than 0.1 µM; in assay [2], 3 to 30 µM.

As to `O=C(N[C@H]1C[C@@H]2C[C@@H]2C[C@H]2CC[C@@H](C(=O)N3CC(c4cnccc4N4CCOCC4)C3)N2C1=O)c1cc2cc([C@H](F)P(=O)(O)O)ccc2s1` (single isomer, unassigned) [Example 406], the IC50 was less than 0.1 µM in assay [1] and 3 to 30 µM in assay [2].

With `CN(C)c1ccncc1C1CN(C(=O)[C@@H]2CC[C@@H]3C[C@H]4C[C@H]4C[C@H](NC(=O)c4cc5cc([C@H](F)P(=O)(O)O)ccc5s4)C(=O)N32)C1` (single isomer, unassigned) [Example 407], the half-inhibitory concentration (IC50) in assay [1] is less than 0.1 µM; in assay [2], 3 to 30 µM.

Regarding `CN(C)c1ccncc1C1CN(C(=O)[C@@H]2CC[C@@H]3C[C@H]4C[C@H]4C[C@H](NC(=O)c4cc5cc([C@@H](F)P(=O)(O)O)ccc5s4)C(=O)N32)C1` (single isomer, unassigned) [Example 408], the figures for the IC50 in assay [1] and in assay [2] were less than 0.1 µM and 3 to 30 µM, respectively.

As to `COC[C@@H]1CCN1c1ccncc1C1CN(C(=O)[C@@H]2CC[C@@H]3C[C@H]4C[C@H]4C[C@H](NC(=O)c4cc5cc([C@@H](F)P(=O)(O)O)ccc5s4)C(=O)N32)C1` (single isomer, unassigned) [Example 410], the figures for the IC50 in assay [1] and in assay [2] were 1 to 10 µM and 3 to 30 µM, respectively.

As to `COC[C@@H]1CCN1c1ccncc1C1CN(C(=O)[C@@H]2CC[C@@H]3C[C@H]4C[C@H]4C[C@H](NC(=O)c4cc5cc([C@H](F)P(=O)(O)O)ccc5s4)C(=O)N32)C1` (single isomer, unassigned) [Example 411], the half-maximal inhibitory concentration (IC50) in assay [1] was in the range of 0.1 to 1 µM; in assay [2], 0.3 to 3 µM.

Consider `N#C[C@@H]1[C@@H](c2cccnc2)CN(C(=O)[C@@H]2CC[C@@H]3C[C@H]4C[C@H]4C[C@H](NC(=O)c4cc5cc([C@H](F)P(=O)(O)O)ccc5s4)C(=O)N32)C12CC2` (single isomer, unassigned) [Example 429], for which the results for the IC50 in assay [1] and in assay [2] were 1 to 10 µM and no more than 0.3 µM, respectively.

As to `CN(C)c1ccncc1[C@@H]1CN(C(=O)[C@@H]2CC[C@@H]3C[C@H]4C[C@H]4C[C@H](NC(=O)c4cc5cc([C@H](F)P(=O)(O)O)ccc5s4)C(=O)N32)C2(CC2)C1` (single isomer, unassigned) [Example 433], the results for the 50% inhibitory concentration (IC50) in assay [1] and in assay [2] were less than 0.1 µM and 0.3 to 3 µM, respectively.

Regarding `CN(C)c1ccncc1[C@H]1CN(C(=O)[C@@H]2CC[C@@H]3C[C@H]4C[C@H]4C[C@H](NC(=O)c4cc5cc([C@H](F)P(=O)(O)O)ccc5s4)C(=O)N32)C2(CC2)C1` (single isomer, unassigned) [Example 435], the IC50 in assay [1] was less than 0.1 µM; in assay [2], no more than 0.3 µM.

Turning to `CC12CC1C[C@H](NC(=O)c1cc3cc(C(F)(F)P(=O)(O)O)ccc3s1)C(=O)N1[C@H](CC[C@H]1C(=O)N1CC(c3cccnc3)C1)C2` (stereo in doubt) [Example 231, (difluoro(2-(((3S,6S,7aR,8aS,9aR)-8a-methyl-5-oxo-3-(3-(pyridin-3-yl)azetidine-1-carbonyl)decahydro-1H-cyclopropa[d]pyrrolo[1,2-a]azocin-6-yl)carbamoyl)benzo[b]thiophen-5-yl)methyl)phosphonic acid], the results for the IC50 in assay [1] and in assay [2] were less than 0.1 µM and 3 to 30 µM, respectively.

In the case of `COC1(c2nccn2C)CN(C(=O)[C@@H]2CC[C@@H]3CC4(C)CC4C[C@H](NC(=O)c4cc5cc(C(F)(F)P(=O)(O)O)ccc5s4)C(=O)N32)C1` (stereo in doubt) [Example 239, (difluoro(2-(((3S,6S,7aR,8aS,9aR)-3-(3-methoxy-3-(1-methyl-1H-imidazol-2-yl)azetidine-1-carbonyl)-8a-methyl-5-oxodecahydro-1H-cyclopropa[d]pyrrolo[1,2-a]azocin-6-yl)carbamoyl)benzo[b]thiophen-5-yl)methyl)phosphonic acid], the IC50 is less than 0.1 µM in assay [1] and 3 to 30 µM in assay [2].

As for `CC(=O)N1CCC2C1CN2C(=O)[C@@H]1CC[C@@H]2C[C@H]3C[C@H]3C[C@H](NC(=O)c3cc4cc(C(F)P(=O)(O)O)ccc4s3)C(=O)N21` (stereo in doubt) [Example 289, ((2-(((3S,6S,7aS,8aR,9aR)-3-((1S,5S)-2-acetyl-2,6-diazabicyclo[3.2.0]heptane-6-carbonyl)-5-oxodecahydro-1H-cyclopropa[d]pyrrolo[1,2-a]azocin-6-yl)carbamoyl)benzo[b]thiophen-5-yl)fluoromethyl)phosphonic acid], the IC50 was in the range of 0.1 to 1 µM in assay [1] and 3 to 30 µM in assay [2].

Turning to `C[C@H]1CN(C(=O)C2CN(C(=O)[C@@H]3CC[C@@H]4C[C@H]5C[C@H]5C[C@H](NC(=O)c5cc6cc(C(F)(F)P(=O)(O)O)ccc6s5)C(=O)N43)C2)CCO1` [Compound 12, (difluoro(2-(((3S,6S,7aS,8aR,9aR)-3-(3-((S)-2-methylmorpholine-4-carbonyl)azetidine-1-carbonyl)-5-oxodecahydro-1H-cyclopropa[d]pyrrolo[1,2-a]azocin-6-yl)carbamoyl)benzo[b]thiophen-5-yl)methyl)phosphonic acid], the IC50 in assay [1] is less than 0.1 µM; in assay [2], 3 to 30 µM.

Take `C[C@@H]1COCCN1C(=O)C1CN(C(=O)[C@@H]2CC[C@@H]3C[C@H]4C[C@H]4C[C@H](NC(=O)c4cc5cc(C(F)(F)P(=O)(O)O)ccc5s4)C(=O)N32)C1` [Compound 13, (difluoro(2-(((3S,6S,7aS,8aR,9aR)-3-(3-((R)-3-methylmorpholine-4-carbonyl)azetidine-1-carbonyl)5-oxodecahydro-1H-cyclopropa[d]pyrrolo[1,2-a]azocin-6-yl)carbamoyl)benzo[b]thiophen-5-yl)methyl)phosphonic acid]: the 50% inhibitory concentration (IC50) in assay [1] was less than 0.1 µM; in assay [2], 3 to 30 µM.

As to `C[C@H]1COCCN1C(=O)C1CN(C(=O)[C@@H]2CC[C@@H]3C[C@H]4C[C@H]4C[C@H](NC(=O)c4cc5cc(C(F)(F)P(=O)(O)O)ccc5s4)C(=O)N32)C1` [Compound 14, (difluoro(2-(((3S,6S,7aS,8aR,9aR)-3-(3-((S)-3-methylmorpholine-4-carbonyl)azetidine-1-carbonyl)-5-oxodecahydro-1H-cyclopropa[d]pyrrolo[1,2-a]azocin-6-yl)carbamoyl)benzo[b]thiophen-5-yl)methyl)phosphonic acid], the 50% inhibitory concentration (IC50) was less than 0.1 µM in assay [1] and 3 to 30 µM in assay [2].

In the case of `O=C(N[C@H]1C[C@@H]2C[C@@H]2C[C@H]2CC[C@@H](C(=O)N3CC(C(=O)N4CCOCC4)C3)N2C1=O)c1cc2cc(C(F)(F)P(=O)(O)O)ccc2s1` [Compound 15, (difluoro(2-(((3S,6S,7aS,8aR,9aR)-3-(3-(morpholine-4-carbonyl)azetidine-1-carbonyl)-5-oxodecahydro-1H-cyclopropa[d]pyrrolo[1,2-a]azocin-6-yl)carbamoyl)benzo[b]thiophen-5-yl)methyl)phosphonic acid], the concentration for half-maximal inhibition (IC50) in assay [1] was less than 0.1 µM; in assay [2] it was 3 to 30 µM.
